Reference: patent US5108747A, “Stable oxpenem-3-carboxylic acids as beta-lactamase inhibitors” (Bayer Aktiengesellschaft, priority 1988, dated 1992)
Entries after “also recorded” stand apart in the source; their conditions may differ. Where a name gives a salt, the structure may show the parent alone. Read-outs that look alike come from different tables or passages of the source. Each block holds one compound with its values, some of them ahead of it.

Columns and labels:
[1] = system: similar bacteria; settings: 25 μg applied, J. Amer. Chem. Soc. 100, 8004 (1978); cited from earlier work
[2] = cited from earlier work
[3] = system: intact bacteria; settings: antibacterial activity or synergism with ampicillin; Morin and Gorman, page 383; cited from earlier work
[4] = Hydrolysis half life at pH 7.4, 37° C. in aqueous phosphate buffer (UV spectroscopy; measure of the stability); format: physicochemical; settings: for half-life: aqueous phosphate buffer
[5] = system: Staph. aureus DSM 1104; assay: agar diffusion test, Staph. aureus DSM 1104; format: cell-based, Staphylococcus aureus
Method: The compound IIIe designated as preferred in earlier patent applications (for example in EP 18,305) hydrolyzes in a few minutes and could never be transported efficiently by the blood vessel (pH 7.4, 37° C.) to the site of action undamaged. […] Using Staphylococcus aureus DSM 1104, only an inhibition halo of a few mm was determined in the agar diffusion test after applying 250 μg of IIIe.
(§1) Certain representatives are just as effective against gram-positive as against gram-negative bacteria and resistant bacteria.

[6] = system: bacteria; assay: antibacterial activity in vitro; format: cell-based
[7] = system: isolated bacterial enzymes (β-lactamases); settings: cited from earlier work
[8] = system: bacteria; settings: literature; cited from earlier work
[9] = molecular target: cephalosporinase of E. cloacae 908 R (Enterobacter cloacae, UniProt P05364); assay: in vitro inhibition of the cephalosporinase of E. cloacae 908 R; format: biochemical; settings: relative to formiminothienamycin
Excerpt: A particular advantage of the oxapenem-3-carboxylic acids according to the invention is that in addition to the abovementioned properties of β-lactamase inhibition they are also themselves antibacterially active per se. It is true that substances having similar properties are known, for example formiminothienamycin (Lit.: Recent Advances in the Chemistry of β-Lactam Antibiotics, ed. by G.I. Gregory, The Royal Society, London, page 279 (1981)). However, the compounds according to the invention show a more rapid, more progressive and more irreversible inhibition of the lactamases with many clinically relevant bacteria. Thus, for example, the cephalosporinase of E. cloacae 908 R is inhibited 780 times more effectively in vitro by the 2-tert-butyl-6-hydroxymethyloxapenem-3-carboxylic acid K salt according to the invention than by formiminothienamycin.

[10] = system: Staph. aureus 012484/77; assay: agar diffusion test, Staph. aureus 012484/77 (penicillin- and cephalosporin-resistant); format: cell-based, Staphylococcus aureus
Excerpt: as §1

[11] = system: Escherichia coli DSM 1103; assay: agar diffusion test, Escherichia coli DSM 1103; format: cell-based
Excerpt: as §1

[12] = system: Escherichia coli W 3110 R6K (TEM 1); assay: agar diffusion test, Escherichia coli W 3110 R6K (TEM 1) (β-lactamase-forming); format: cell-based
[13] = system: Beta lactamase from Pseudomonas aeruginosa W; assay: Degradation of mezlocillin by beta lactamase from Pseudomonas aeruginosa W and its prevention (agar hole test); format: biochemical
Method: (§2) Methods: the degradation of mezlocillin was determined with Streptococcus pyogenes W using the agar hole test, the sensitivity limits of which are below 1 mcg/ml.
(§3) Degradation of mezlocillin by beta lactamase and prevention of this degradation by oxapenem "O"

[14] = system: Staphylococcus aureus 25, 455/1; assay: Decrease in the colony-forming capacity of Staphylococcus aureus 25, 455/1 in liquid nutrient medium; format: cell-based; settings: control 3.5 × 10^8
Method: The colony-forming capacity of the bacteria was determined by plating out the bacteria on OXOID Iso Sensitest Agar. The two methods are international standard methods.
Synergistic effect of the combination. Decrease in the colony-forming capacity of Staphylococcus aureus 25, 455/1 by the action of mezlocillin in liquid nutrient medium.

[15] = molecular target: T1, Beta lactamase from E. coli 4787 TEM 1 (Escherichia coli, UniProt P62593); assay: Degradation of mezlocillin by beta lactamase from E. coli 4787 TEM 1 and its prevention (agar hole test); format: biochemical; settings: without oxapenem
T1 construct: preparation not described in the excerpts
Method: as §2, §3

T1 sequence (P62593 24-286 limits assumed): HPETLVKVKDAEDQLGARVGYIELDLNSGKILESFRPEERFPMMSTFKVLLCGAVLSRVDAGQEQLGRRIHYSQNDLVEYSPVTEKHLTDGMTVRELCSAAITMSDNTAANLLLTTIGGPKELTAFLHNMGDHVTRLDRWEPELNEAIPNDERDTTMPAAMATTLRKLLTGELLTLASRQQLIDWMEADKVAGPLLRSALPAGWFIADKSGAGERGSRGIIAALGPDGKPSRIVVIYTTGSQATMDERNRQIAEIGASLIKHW
Chain of cephalosporinase of E. cloacae 908 R (P05364 21-381): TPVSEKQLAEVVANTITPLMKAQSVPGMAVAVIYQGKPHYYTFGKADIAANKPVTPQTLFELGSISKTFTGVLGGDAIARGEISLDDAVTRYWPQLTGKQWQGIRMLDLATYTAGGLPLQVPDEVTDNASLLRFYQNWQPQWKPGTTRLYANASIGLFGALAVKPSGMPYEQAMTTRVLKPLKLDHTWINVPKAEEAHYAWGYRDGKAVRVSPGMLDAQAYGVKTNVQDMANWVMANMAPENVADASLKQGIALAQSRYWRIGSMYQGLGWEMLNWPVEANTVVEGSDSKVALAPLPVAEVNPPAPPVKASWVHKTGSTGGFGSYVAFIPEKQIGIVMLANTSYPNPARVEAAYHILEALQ

Structure (SMILES): C[C@@H](O)[C@H]1C(=O)N2C(C(=O)O)=C(SCCN)C[C@H]12 [thienamycin]
inhibition halo diameter [1]: 28-41 mm
stability (in words) ([2]; literature): very sensitive to hydrolysis

Structure (SMILES): CCC1=C(C(=O)O)N2C(=O)CC2O1 (stereo not shown) [potassium salt of 2-ethyl-1-oxapenem-3-carboxylic acid]
testability against intact bacteria (in words) [3]: too unstable for testing the antibacterial activity or the synergism with ampicillin against intact bacteria; also recorded: too unstable for testing synergism with ampicillin against intact bacteria

Structure (SMILES): CC1=C(C(=O)O)N2C(=O)CC2O1 (stereo not shown) [IIIe]
Hydrolysis half life (in words) [4]: a few minutes
inhibition halo (in words) ([5]; 250 μg applied): a few mm
antibacterial efficacy (in words) [6]: virtually ineffective antibacterially

Structure (SMILES): CCC1=C(C(=O)O)N2C(=O)C[C@H]2O1 [2-ethyl-1-oxapen-2-em-3-carboxylic acid]
inhibition of isolated bacterial enzymes (β-lactamases) (in words) [7]: Only an inhibition of isolated bacterial enzymes (β-lactamases) was detectable
stability in aqueous medium (in words) ([2]; aqueous medium): far too unstable in aqueous medium for antibacterial testing
antibacterial efficacy (in words) [8]: virtually ineffective as an antibiotic

Structure (SMILES): CC(C)(C)C1=C(C(=O)O)N2C(=O)C(CO)C2O1 (stereo not shown) [2-tert-butyl-6-hydroxymethyloxapenem-3-carboxylic acid K salt]
inhibited times more effectively than by formiminothienamycin [9]: 780 times

Structure (SMILES): CC(C)(C)C1=C(C(=O)O)N2C(=O)C[C@H]2O1 [2-tert-butyl-1-oxapen-2-em-3-carboxylic acid]
zone of inhibition at 200 µg/disc ([5]; Staphylococcus aureus, DSM1104, 200 μg applied, read-out: inhibition halo diameter): 45 mm
zone of inhibition at 200 µg/disc ([10]; Staphylococcus aureus, 012484/77, 200 μg applied, read-out: inhibition halo diameter): 47 mm
zone of inhibition at 200 µg/disc ([11]; DSM1103, 200 μg applied, read-out: inhibition halo diameter): 41 mm

half-life [4]: 30 h
Structure (SMILES): CC(C)(C)C1=C(C(=O)O)N2C(=O)C(C)(C)C2O1 (stereo not shown) [Compound IIIa, 2-tert-butyl-6.6-dimethyl-1-oxaoen-2-em-3-carboxylic acid]

Structure (SMILES): CC(C)(C)C1=C(C(=O)O)N2C(=O)C(CO)C2O1 (stereo not shown) [3-tert-butyl-6-hydroxymethyl-7-oxo-4-oxa-1-azabicyclo[3.2.0]hept-2-ene-2-carboxylic acid]
zone of inhibition at 10 µg/disc ([5]; Staphylococcus aureus, DSM1104, 10 μg applied, read-out: inhibition halo diameter): 30 mm
zone of inhibition at 10 µg/disc ([10]; Staphylococcus aureus, 012484/77, 10 μg applied, read-out: inhibition halo diameter): 32 mm
zone of inhibition at 10 µg/disc ([11]; DSM1103, 10 μg applied, read-out: inhibition halo diameter): 30 mm
zone of inhibition at 10 µg ([12]; Escherichia coli, read-out: inhibition halo diameter): 29 mm

Structure (SMILES): CC1(C)S[C@@H]2[C@H](NC(=O)COc3ccccc3)C(=O)N2[C@H]1C(=O)O [Penicillin V]
zone of inhibition at 130 µg/disc ([5]; Staphylococcus aureus, DSM1104, read-out: inhibition halo diameter): 42 mm
inhibition (in words) ([10]; 130 μg applied): not inhibited
zone of inhibition at 130 µg/disc ([11]; DSM1103, read-out: inhibition halo diameter): 13 mm
inhibition (in words) ([12]; 130 μg applied): not inhibited

half-life [4]: 0.833 h
Structure (SMILES): CC1=C(C(=O)O)N2C(=O)C(C)(C)C2O1 (stereo not shown) [Compound IIId]

Structure (SMILES): O=C(O)[C@H]1/C(=C/CO)O[C@@H]2CC(=O)N21 [clavulanic acid]
Mezlocillin remaining ([13]; reaction time 0 min, with 1 mcg of inhibitor): 100 µg/mL
Mezlocillin remaining ([13]; reaction time 0 min, with 10 mcg of inhibitor): 100 µg/mL
Mezlocillin remaining ([13]; reaction time 30 min, with 1 mcg of inhibitor): 40 µg/mL
Mezlocillin remaining ([13]; reaction time 30 min, with 10 mcg of inhibitor): 27 µg/mL
Mezlocillin remaining ([13]; reaction time 60 min, with 1 mcg of inhibitor): 0 µg/mL
Mezlocillin remaining ([13]; reaction time 60 min, with 10 mcg of inhibitor): 0 µg/mL
Number of colonies after an action time of 6 hrs ([14]; 0.1 mcg alone): 1.0 × 10^8 N/ml

Structure (SMILES): CC1(C)S[C@@H]2[C@H](NC(=O)[C@H](NC(=O)N3CCN(S(C)(=O)=O)C3=O)c3ccccc3)C(=O)N2[C@H]1C(=O)O [mezlocillin]
Mezlocillin remaining ([13]; reaction time 0 min, without oxapenem): 100 µg/mL
Mezlocillin remaining ([13]; reaction time 30 min, without oxapenem): 35 µg/mL
Mezlocillin remaining ([13]; reaction time 60 min, without oxapenem): 0 µg/mL
Mezlocillin remaining ([15]; reaction time 0 min): 100 µg/mL
Mezlocillin remaining ([15]; reaction time 30 min): 65 µg/mL
Mezlocillin remaining ([15]; reaction time 60 min): 43 µg/mL
Mezlocillin remaining ([15]; reaction time 240 min): 0 µg/mL
Number of colonies after an action time of 6 hrs ([14]; 2.0 mcg alone): 1.0 × 10^6 N/ml

half-life [4]: 2 h
Structure (SMILES): CC(C)C1=C(C(=O)O)N2C(=O)C(C)(C)C2O1 (stereo not shown) [Compound IIIb]

half-life [4]: 1.17 h
Structure (SMILES): CCC1=C(C(=O)O)N2C(=O)C(C)(C)C2O1 (stereo not shown) [Compound IIIc]
